Data on one molecule can be found in US6485722B1, “Method for selective engraftment of drug-resistant hematopoietic stem cells” (Regents of the University of Minnesota, priority 1996, dated 2002).

SMILES strings stand for the structures.

Series [1] in a line: MTX toxicity in irradiated mice transplanted with normal (non-transgenic) FVB/N marrow. The protocol:
(§1) Male marrow is used as competitor so that Y chromosome sequences can be used as a quantitative signal for the presence of competitor-derived material at the time of analysis, while the DHFR transgene can be used as a quantitative signal for presence of DHFR-transgenic-derived material.
(§2) Animals in each of the three groups were administered either PBS or MTX at an increasing dose schedule culminating at 4 mg/kg/day. MTX administration was continued out to 60 days post-transplant. […] After 60 days, MTX administration is stopped. A small number of animals were sacrificed at this time to collect marrow samples for subsequent analysis, but most of the animals were maintained for an additional 2 months. At 4 months post-transplant, all surviving animals were sacrificed and bone marrow harvested. Each marrow sample collected was resuspended and then injected into 5 lethally-irradiated secondary female FVB/N recipients (2×10^6 donor cells per secondary recipient), saving the leftover marrow for subsequent molecular analysis. Secondary recipients were maintained for an additional 4 months before sacrificing and harvesting marrow samples.

For series [2], the system named is stem cells expressing a MTX-resistant DHFR. Briefly: Competitive repopulation with 50/50 mixture of normal and DHFR transgenic marrow, Southern blot of marrow DNA. The series is classed as in vivo, FVB/N mice. The method, then:
as §1, §2

In the case of `CN(Cc1cnc2nc(N)nc(N)c2n1)c1ccc(C(=O)N[C@@H](CCC(=O)O)C(=O)O)cc1` [MTX, methotrexate], the “toxicity of low dose MTX” value in series [1] (0.25 mg/kg/day for 1-4 days, 0.5 mg/kg/day next four days, then 1.0 mg/kg/day, recipients of non-transgenic marrow) is reported as “caused hematopoietic toxicity”. In addition, the “time at which animals succumb to MTX induced toxicity” value in series [1] (irradiated (900 rads) mice transplanted with 10^7 normal FVB/N marrow cells, MTX increasing dose schedule culminating at 4 mg/kg/day, all animals) is listed as 15-30 days post-transplant. Further, the “toxicity of high dose MTX” value in series [1] (mouse, in vivo, 4 mg/kg/day) is “causes not only hematopoietic toxicity but gastrointestinal toxicity as well”. In series [2] (animals transplanted with transgenic marrow, MTX rather than PBS), the “DHFR transgene copy number in primary recipients” value is “substantial increase”. For the same molecule, the “secondary recipients showing a substantial contribution of transgenic marrow” value in series [2] (primary transplant 50% normal / 50% DHFR transgenic marrow, MTX up to 4 mg/kg/day for 60 days, secondary recipients analysed 4 months after secondary transplant) is 5 out of 5.
